Experimental data reported in US9744165B2, “Method for treating hypertension” (TSH Biopharm Corporation Ltd., priority 2010, dated 2017).

Columns and labels:
[1] = system: animal models of hypertension; settings: cited from earlier work
[2] = system: spontaneous hypertensive rats (SHR); experiment: Anti-hypertensive efficacy of monotherapy and combined therapy in spontaneous hypertensive rats (tail-cuff blood pressure); type: in vivo, rat
Experimental: An in vivo study was conducted to measure and compare the anti-hypertensive efficacy and tolerability of dextromethorphan and amlodipine in monotherapy and combined therapy in spontaneous hypertensive rats, an animal model for hypertension. The same study can be performed with other NADPH oxidase inhibitor and CCB.
Aged 18-week male normotensive Wistar Kyoto (WKY) and spontaneous hypertensive rats (SHR) were used in this study.
Untreated WKY and SHR were compared with SHR treated with amlodipine (1, 5 mg/kg/day) or dextromethorphan (1, 5, 25 mg/kg/day) and fix dose combination (AM+DM) using a matrix combination of above doses for 4 weeks. All the treatment groups are listed in Table 1, including G1˜G12 for SHR and G0 for WKY as a control.
Control rats (G0 and G1) received 1% solution of methylcellulose (1 ml/kg) by a gavage as a vehicle. AM and DM were suspended in 1% solution of methylcellulose and administered by a gavage in a 1 ml/kg volume. All compounds were administered for 4 weeks. Arterial blood pressure measurement and blood sampling were carried out before treatment, and after the second and forth week of drug administration.
Arterial blood pressure was measured in conscious rats with an automatic sphygmomanometer, using tail-cuff method. Before the measurements, the animals were placed inside a warming chamber (about 34° C.) for 30 min. The aim of the procedure is to calm the animals and dilate the tail blood vessels. Arterial blood pressure was measured at least three times for each animal. Changes in pressure are expressed as the percentage of baseline values.
Arterial blood pressure and blood sampling will be measured before treatment, and after the second and forth week of drug administration (FIG. 6).
Results are expressed as mean±SD. The normality of distribution was checked by means of Kolmogorov-Smirnov test with Lilliefors test. The statistical evaluation was performed using analysis of variance (ANOVA) and post hoc comparisons were performed by means of Least Significant Differences (LSD) test. If the data were not normally distributed, statistical evaluation was performed by using ANOVA (Kruskall-Wallis) and Mann-Whitney U test. Differences were considered significant when p<0.05.

[3] = system: apolipoprotein E (apoE)-deficient mice; settings: cited from earlier work

For `COc1cc(C(C)=O)ccc1O` [apocynin], the blood pressure [1] is given as “decrease blood pressure”.
With `CCOC(=O)C1=C(COCCN)NC(C)=C(C(=O)OC)C1c1ccccc1Cl` (stereo not shown) [AM, 3-ethyl 5-methyl 2-[(2-aminoethoxy)methyl]-4-(2-chlorophenyl)-1,4-dihydro-6-m ethylpyridine-3,5-dicarboxylate] the “blood pressure lowering effect (SBP, DBP, MBP)” value ([2]; AM alone at 1 and 5 mg/kg/day by gavage for 4 weeks, FIGS. 2a-d) was “resulted in lowering of the blood pressure” and the “dosage response of blood pressure lowering” value ([2]; AM alone, 1 vs 5 mg/kg/day) was “more pronounced with the higher dose”.
In the case of `COc1ccc2c(c1)[C@]13CCCC[C@@H]1[C@H](C2)N(C)CC3` [DM, (+)-3-methoxy-17-methyl-9α,13α,14α-morphinan], the “blood pressure lowering effect (SBP, DBP, MBP)” value ([2]; DM alone at 1, 5 and 25 mg/kg/day by gavage for 4 weeks, FIGS. 1a-d) is given as “resulted in lowering of the blood pressure”, the “dosage response of blood pressure lowering” value ([2]; DM alone, 1 vs 5 vs 25 mg/kg/day) is given as “no clear dosage response was observed” and the superoxide production ([3]; aorta and carotid artery of apoE-deficient mice) is given as “decreases superoxide production”. The “oxidative stress, atherosclerosis and neointima formation” value ([3]; mice, through direct inhibition of NADPH oxidase) was “reduces oxidative stress and inhibits atherosclerosis and neointima formation”.
